Laboratory results reported in paper PMC10831120, “Nitric oxide synthase-guided genome mining identifies a cytochrome P450 enzyme for olefin nitration in bacterial specialized metabolism” (Synthetic and Systems Biotechnology, 2024).

Target: T1, Laj2 (cytochrome P450)
T1 construct: His6-tagged Laj2 (405 aa), expressed in E. coli
Assay: UV-vis difference spectral titration (type I binding spectra), one-site fit; nitration turnover also shown by LC-MS
Parameters: species or system Streptomyces qinglanensis

## C/C=C(C)/C=C/C=C\C=C(\C)C(O)C(C)(C)C(=O)NC/C=C/C=C/C(O)C(C)CC(OC)C1(O)C(C)C(=O)N(C)C12COC2=O (stereo not shown) [compound 4, denitrolajollamycin]
  Kd: ~60 µM
